# According to patent US20260049088A1, “TRICYCLIC HETEROCYCLIC DERIVATIVES, COMPOSITIONS AND USES THEREOF” (Danatlas Pharmaceuticals Co., Ltd., priority 2023, published 2026):
# Biological target: T1, hPARG (Homo sapiens, UniProt Q86W56)
# T1 construct: made in house; host or cells: E. coli
# Assay: PARG enzymatic activity assay (HTRF)
# Assay type: biochemical
# Conditions: C-terminal His6-tag hPARG 65 pM, biotinylated-NAD ribosylated PARP1 substrate 8 nM
# Description: HTRF assay was used to measure the ability of compounds to inhibit the activity of […] in vitro. C-terminal His6—tag PARG expressed in E. coli was purified and stored at −80° C. in aliquots. Assay measurements were performed with 1×buffer comprising 50 mM Tris pH 7.4, 0.1 mg/mL BSA, 3 mM EDTA, 0.4 mM EGTA, 1 mM DTT, 50 mM KCl and 0.01% Tween 20. Compounds dissolved in DMSO were plated into a 384-well assay plate (PerkinElmer, Catalog #: 6008280) in duplicate using a dispenser (Labcyte, Echo 665), and tested on a 10-point 4-fold serial dilution. Add 5 μL Enzyme mix [hPARG (C-terminal His6—tag, 4.2 μM), 65 pM final] to the test wells. The plates were covered and left to incubate for 60 minutes at RT before the addition of 5 μL substrate mix [biotinylated-NAD ribosylated PARP1 (6.1 μM), 8 nM final] to initiate reaction. After incubating 10 minutes at RT, add 2.5 μL Streptavidin-Eu cryptate (Cisbio, Catalog #: 610SAKLA) and 2.5 μL Mab anti 6HIS-XL665 (Cisbio, Catalog #: 61HISXLA) to the plate, and incubate for 60 minutes at RT. Read on a multimode plate reader (PerkinElmer, Envision 2015) in time-resolved fluorescence (TRF) mode, with excitation at 337 nm and emission at both 620 nm and 665 nm. Average HTRF signal of high control (Wells with 1% DMSO) was calculated and as Vehicle Control (VC). Average HTRF signal of low control (no Enzyme) was calculated and as Positive control (PC).
# IC50 values were determined by fitting the data to the standard 4 parameters with Hill Slope using GraphPad Prism software.
# T1 sequence (Q86W56 whole entry): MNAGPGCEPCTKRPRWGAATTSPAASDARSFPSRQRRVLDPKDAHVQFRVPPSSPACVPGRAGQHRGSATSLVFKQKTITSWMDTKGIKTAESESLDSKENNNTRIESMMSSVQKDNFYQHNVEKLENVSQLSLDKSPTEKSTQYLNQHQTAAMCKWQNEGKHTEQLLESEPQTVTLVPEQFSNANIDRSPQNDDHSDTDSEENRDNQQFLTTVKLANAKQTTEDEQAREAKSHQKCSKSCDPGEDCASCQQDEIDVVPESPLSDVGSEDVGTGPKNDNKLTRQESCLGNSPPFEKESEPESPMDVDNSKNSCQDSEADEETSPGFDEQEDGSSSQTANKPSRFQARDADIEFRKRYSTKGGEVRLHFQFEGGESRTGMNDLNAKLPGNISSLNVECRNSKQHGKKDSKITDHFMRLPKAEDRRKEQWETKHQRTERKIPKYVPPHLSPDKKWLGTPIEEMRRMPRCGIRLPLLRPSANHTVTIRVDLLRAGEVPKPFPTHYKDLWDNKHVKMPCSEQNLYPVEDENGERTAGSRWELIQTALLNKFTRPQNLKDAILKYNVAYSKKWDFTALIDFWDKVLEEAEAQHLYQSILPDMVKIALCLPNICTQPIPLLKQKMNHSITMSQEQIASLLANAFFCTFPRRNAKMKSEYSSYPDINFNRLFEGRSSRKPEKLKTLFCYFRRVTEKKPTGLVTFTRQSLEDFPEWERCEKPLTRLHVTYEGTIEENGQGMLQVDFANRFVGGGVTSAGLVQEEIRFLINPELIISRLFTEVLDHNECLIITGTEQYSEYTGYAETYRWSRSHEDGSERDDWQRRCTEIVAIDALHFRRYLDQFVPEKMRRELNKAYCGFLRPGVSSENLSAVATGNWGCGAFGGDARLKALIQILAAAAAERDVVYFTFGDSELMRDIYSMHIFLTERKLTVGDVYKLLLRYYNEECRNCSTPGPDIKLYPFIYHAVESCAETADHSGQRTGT
row,SMILES,IC50 [nM]
1,"N#CC1(NS(=O)(=O)c2ccc3c4c(OCCCCN5CCOCC5)ncnc4n(-c4nnc(C(F)F)s4)c3c2)CC1 [Example 3, N-(1-Cyanocyclopropyl)-9-(5-(difluoromethyl)-1,3,4-thiadiazol-2-yl)-4-(4-morpholinobutoxy)-9H-pyrimido[4,5-b]indole-7-sulfonamide]",≤ 100
2,"CN(C[C@H]1CC[C@@H](O)CC1)c1ncnc2c1c1ccc(S(=O)(=O)NC3(C#N)CC3)cc1n2-c1nnc(C(F)F)s1 [Example 73, N-(1-Cyanocyclopropyl)-9-(5-(difluoromethyl)-1,3,4-thiadiazol-2-yl)-4-((((1s,4s)-4-hydroxycyclohexyl)methyl)(methyl)amino)-9H-pyrimido[4,5-b]indole-7-sulfonamide]",≤ 100
3,"CN(C[C@@H]1COCCN1C)c1ncnc2c1c1ccc(S(=O)(=O)NC3(C#N)CC3)cc1n2-c1nnc(C(F)F)s1 [Example 65, (R)-N-(1-Cyanocyclopropyl)-9-(5-(difluoromethyl)-1,3,4-thiadiazol-2-yl)-4-(methyl((4-methylmorpholin-3-yl)methyl)amino)-9H-pyrimido[4,5-b]indole-7-sulfonamide]",≤ 100
4,"CN(CCn1cccn1)c1ncnc2c1c1ccc(S(=O)(=O)NC3(C#N)CC3)cc1n2-c1nnc(C(F)F)s1 [Example 24, 4-((2-(1H-Pyrazol-1-yl)ethyl)(methyl)amino)-N-(1-cyanocyclopropyl)-9-(5-(difluoromethyl)-1,3,4-thiadiazol-2-yl)-9H-pyrimido[4,5-b]indole-7-sulfonamide]",100 to 1000
5,"COCCSc1ncnc2c1c1ccc(S(=O)(=O)NC3(C#N)CC3)cc1n2-c1nnc(C(F)F)s1 [Example 84, N-(1-Cyanocyclopropyl)-9-(5-(difluoromethyl)-1,3,4-thiadiazol-2-yl)-4-((2-methoxyethyl)thio)-9H-pyrimido[4,5-b]indole-7-sulfonamide]",100 to 1000
6,"CC(C)C(=O)N1CCN(CCOc2ncnc3c2c2ccc(S(=O)(=O)NC4(C#N)CC4)cc2n3-c2nnc(C(F)F)s2)CC1 [Example 4, N-(1-Cyanocyclopropyl)-9-(5-(difluoromethyl)-1,3,4-thiadiazol-2-yl)-4-(2-(4-isobutyrylpiperazin-1-yl)ethoxy)-9H-pyrimido[4,5-b]indole-7-sulfonamide]",≤ 100
7,"N#CC1(NS(=O)(=O)c2ccc3c4c(SCCO)ncnc4n(-c4nnc(C(F)F)s4)c3c2)CC1 [Example 27, N-(1-Cyanocyclopropyl)-9-(5-(difluoromethyl)-1,3,4-thiadiazol-2-yl)-4-((2-hydroxyethyl)thio)-9H-pyrimido[4,5-b]indole-7-sulfonamide]",≤ 100
8,"CN(CCc1ccccn1)c1ncnc2c1c1ccc(S(=O)(=O)NC3(C#N)CC3)cc1n2-c1nnc(C(F)F)s1 [Example 76, N-(1-Cyanocyclopropyl)-9-(5-(difluoromethyl)-1,3,4-thiadiazol-2-yl)-4-(methyl(2-(pyridin-2-yl)ethyl)amino)-9H-pyrimido[4,5-b]indole-7-sulfonamide]",≤ 100
9,"N#CC1(NS(=O)(=O)c2ccc3c4c(O[C@H]5CCOC5)ncnc4n(-c4nnc(C(F)F)s4)c3c2)CC1 [Example 7, (S)-N-(1-Cyanocyclopropyl)-9-(5-(difluoromethyl)-1,3,4-thiadiazol-2-yl)-4-((tetrahydrofuran-3-yl)oxy)-9H-pyrimido[4,5-b]indole-7-sulfonamide]",≤ 100
10,"N#CC1(NS(=O)(=O)c2ccc3c4c(C#CCN5CCOCC5)ncnc4n(-c4nnc(C(F)F)s4)c3c2)CC1 [Example 86, N-(1-Cyanocyclopropyl)-9-(5-(difluoromethyl)-1,3,4-thiadiazol-2-yl)-4-(3-morpholinoprop-1-yn-1-yl)-9H-pyrimido[4,5-b]indole-7-sulfonamide]",≤ 100
11,"CN(C)C(=O)N1CCN(CCOc2ncnc3c2c2ccc(S(=O)(=O)NC4(C#N)CC4)cc2n3-c2nnc(C(F)F)s2)CC1 [Example 5, 4-(2-((7-(N-(1-Cyanocyclopropyl)sulfamoyl)-9-(5-(difluoromethyl)-1,3,4-thiadiazol-2-yl)-9H-pyrimido[4,5-b]indol-4-yl)oxy)ethyl)-N,N-dimethylpiperazine-1-carboxamide]",≤ 100

# More lines, now with the values ahead:
row,IC50 [nM],SMILES
1,≤ 100,"CCN(CC)[C@@H]1CCN(c2ncnc3c2c2ccc(S(=O)(=O)NC4(C#N)CC4)cc2n3-c2nnc(C(F)F)s2)C[C@@H]1F [Example 33, N-(1-Cyanocyclopropyl)-4-((3S,4R)-4-(diethylamino)-3-fluoropiperidin-1-yl)-9-(5-(difluoromethyl)-1,3,4-thiadiazol-2-yl)-9H-pyrimido[4,5-b]indole-7-sulfonamide]"
2,≤ 100,"C[C@@H]1CN(c2ncnc3c2c2ccc(S(=O)(=O)NC4(C#N)CC4)cc2n3-c2nnc(C(F)F)s2)C[C@H](C)N1C [Example 41, N-(1-Cyanocyclopropyl)-9-(5-(difluoromethyl)-1,3,4-thiadiazol-2-yl)-4-((3R,5S)-3,4,5-trimethylpiperazin-1-yl)-9H-pyrimido[4,5-b]indole-7-sulfonamide]"
3,≤ 100,"CCN1CCC2CN(c3ncnc4c3c3ccc(S(=O)(=O)NC5(C#N)CC5)cc3n4-c3nnc(C(F)F)s3)CCC21 (centres unmarked) [Example 38, N-(1-Cyanocyclopropyl)-9-(5-(difluoromethyl)-1,3,4-thiadiazol-2-yl)-4-(1-ethyloctahydro-5H-pyrrolo[3,2-c]pyridin-5-yl)-9H-pyrimido[4,5-b]indole-7-sulfonamide]"
4,≤ 100,"CN(C)CC1CN(c2ncnc3c2c2ccc(S(=O)(=O)NC4(C#N)CC4)cc2n3-c2nnc(C(F)F)s2)CCO1 (centres unmarked) [Example 37, N-(1-Cyanocyclopropyl)-9-(5-(difluoromethyl)-1,3,4-thiadiazol-2-yl)-4-(2-((dimethylamino)methyl)morpholino)-9H-pyrimido[4,5-b]indole-7-sulfonamide]"
5,≤ 100,"CN(CC1CCCN1C)c1ncnc2c1c1ccc(S(=O)(=O)NC3(C#N)CC3)cc1n2-c1nnc(C(F)F)s1 (centres unmarked) [Example 80, N-(1-Cyanocyclopropyl)-9-(5-(difluoromethyl)-1,3,4-thiadiazol-2-yl)-4-(methyl((1-methylpyrrolidin-2-yl)methyl)amino)-9H-pyrimido[4,5-b]indole-7-sulfonamide]"
6,≤ 100,"Cc1nc2n(n1)CCN(c1ncnc3c1c1ccc(S(=O)(=O)NC4(C#N)CC4)cc1n3-c1nnc(C(F)F)s1)C2 [Example 55, N-(1-Cyanocyclopropyl)-9-(5-(difluoromethyl)-1,3,4-thiadiazol-2-yl)-4-(2-methyl-5,6-dihydro-[1,2,4]triazolo[1,5-a]pyrazin-7(8H)-yl)-9H-pyrimido[4,5-b]indole-7-sulfonamide]"
7,≤ 100,"CN1CCN(c2ncnc3c2c2ccc(S(=O)(=O)NC4(C#N)CC4)cc2n3-c2nnc(C(F)F)s2)CC12CC2 [Example 48, N-(1-Cyanocyclopropyl)-9-(5-(difluoromethyl)-1,3,4-thiadiazol-2-yl)-4-(4-methyl-4,7-diazaspiro[2.5]octan-7-yl)-9H-pyrimido[4,5-b]indole-7-sulfonamide]"
8,> 1000,"CCSc1ncnc2c1c1ccc(S(=O)(=O)NC3(C#N)CC3)cc1n2-c1nnc(C(F)F)s1 [Example 26, N-(1-Cyanocyclopropyl)-9-(5-(difluoromethyl)-1,3,4-thiadiazol-2-yl)-4-(ethylthio)-9H-pyrimido[4,5-b]indole-7-sulfonamide]"
9,≤ 100,"CCN[C@@H]1CCN(c2ncnc3c2c2ccc(S(=O)(=O)NC4(C#N)CC4)cc2n3-c2nnc(C(F)F)s2)C[C@@H]1F [Example 93, N-(1-Cyanocyclopropyl)-9-(5-(difluoromethyl)-1,3,4-thiadiazol-2-yl)-4-((3S,4R)-4-(ethylamino)-3-fluoropiperidin-1-yl)-9H-pyrimido[4,5-b]indole-7-sulfonamide]"
10,≤ 100,"CN1C[C@H]2C[C@@H]1CN2c1ncnc2c1c1ccc(S(=O)(=O)NC3(C#N)CC3)cc1n2-c1nnc(C(F)F)s1 [Example 30, N-(1-Cyanocyclopropyl)-9-(5-(difluoromethyl)-1,3,4-thiadiazol-2-yl)-4-((1R,4R)-5-methyl-2,5-diazabicyclo[2.2.1]heptan-2-yl)-9H-pyrimido[4,5-b]indole-7-sulfonamide]"
11,100 to 1000,"CN(c1ncnc2c1c1ccc(S(=O)(=O)NC3(C#N)CC3)cc1n2-c1nnc(C(F)F)s1)C1COC1 [Example 58, N-(1-Cyanocyclopropyl)-9-(5-(difluoromethyl)-1,3,4-thiadiazol-2-yl)-4-(methyl(oxetan-3-yl)amino)-9H-pyrimido[4,5-b]indole-7-sulfonamide]"
12,100 to 1000,"CN(c1ncnc2c1c1ccc(S(=O)(=O)NC3(C#N)CC3)cc1n2-c1nnc(C(F)F)s1)[C@H]1CCOC1 [Example 70, (S)-N-(1-Cyanocyclopropyl)-9-(5-(difluoromethyl)-1,3,4-thiadiazol-2-yl)-4-(methyl(tetrahydrofuran-3-yl)amino)-9H-pyrimido[4,5-b]indole-7-sulfonamide]"
